Active and inactive are the calls of the source. No cut-off for these calls is given here.
Experiments:
Mus musculus [1] = experiment: Antinociceptive activity against sc dosed ICR mouse by hot plate method; type: functional, organism-based
[2] = target: Delta-type opioid receptor (Mus musculus, UniProt P32300); experiment: Displacement of [3H]DPDPE from delta opioid receptor in ICR mouse whole brain
[3] = target: Mu-type opioid receptor (Mus musculus) (UniProt P42866); experiment: Inhibition of mu opioid receptor-mediated DAMGO induced activation of G-Protein in ICR mouse brain at 0.1 to 1 uM by [35S]GTPgammaS binding; type: functional
Mu-type opioid receptor = Mu-type opioid receptor (Mus musculus, UniProt P42866); experiment: Displacement of [3H]DAMGO from mu opioid receptor in ICR mouse whole brain
[4] = target: Mu-type opioid receptor (Mus musculus) (UniProt P42866); experiment: Activation of mu opioid receptor-mediated G-protein activation in ICR mouse whole brain at 10 uM by [35S]GTPgammaS binding in presence of Beta-FNA; type: functional
Mus musculus [5] = experiment: Antinociceptive activity against sc dosed ICR mouse by tail flick method; type: functional, organism-based
[6] = target: Kappa-type opioid receptor (Cavia porcellus, UniProt P41144); experiment: Displacement of [3H]U69593 from kappa opioid receptor in guinea pig cerebellum
[7] = target: Kappa-type opioid receptor (Cavia porcellus) (UniProt P41144); experiment: Inhibition of kappa opioid receptor-mediated U50488 induced activation of G-Protein in guinea pig cerebellum at 0.1 to 1 uM by [35S]GTPgammaS binding; type: functional, tissue-based
[8] = target: Delta-type opioid receptor (Mus musculus) (UniProt P32300); experiment: Inhibition of delta opioid receptor-mediated SNC80 induced activation of G-Protein in ICR mouse brain at 0.1 to 1 uM by [35S]GTPgammaS binding; type: functional, tissue-based
Chain of Delta-type opioid receptor (Mus musculus) (P32300 whole entry): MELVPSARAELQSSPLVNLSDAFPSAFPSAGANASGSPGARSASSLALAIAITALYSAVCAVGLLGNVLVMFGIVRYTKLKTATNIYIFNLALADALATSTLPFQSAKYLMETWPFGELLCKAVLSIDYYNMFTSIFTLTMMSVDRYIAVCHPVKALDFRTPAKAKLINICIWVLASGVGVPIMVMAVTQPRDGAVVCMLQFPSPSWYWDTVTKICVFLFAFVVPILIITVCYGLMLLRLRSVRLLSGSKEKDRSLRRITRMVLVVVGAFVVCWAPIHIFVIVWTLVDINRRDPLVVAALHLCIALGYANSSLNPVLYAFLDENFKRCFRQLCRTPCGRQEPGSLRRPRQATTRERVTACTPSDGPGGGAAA

Chain of Mu-type opioid receptor (Mus musculus) (P42866 whole entry): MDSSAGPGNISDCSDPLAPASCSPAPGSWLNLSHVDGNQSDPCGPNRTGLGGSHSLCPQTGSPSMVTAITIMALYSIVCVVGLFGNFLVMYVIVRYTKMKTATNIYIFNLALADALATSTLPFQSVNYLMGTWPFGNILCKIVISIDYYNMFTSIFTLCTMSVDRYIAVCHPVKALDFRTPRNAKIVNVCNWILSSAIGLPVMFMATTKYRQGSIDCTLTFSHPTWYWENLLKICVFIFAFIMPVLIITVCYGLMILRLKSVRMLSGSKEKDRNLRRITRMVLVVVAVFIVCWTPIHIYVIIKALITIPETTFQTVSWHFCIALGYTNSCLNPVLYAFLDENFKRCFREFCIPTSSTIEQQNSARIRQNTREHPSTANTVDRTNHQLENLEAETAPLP
Chain of Kappa-type opioid receptor (P41144 whole entry): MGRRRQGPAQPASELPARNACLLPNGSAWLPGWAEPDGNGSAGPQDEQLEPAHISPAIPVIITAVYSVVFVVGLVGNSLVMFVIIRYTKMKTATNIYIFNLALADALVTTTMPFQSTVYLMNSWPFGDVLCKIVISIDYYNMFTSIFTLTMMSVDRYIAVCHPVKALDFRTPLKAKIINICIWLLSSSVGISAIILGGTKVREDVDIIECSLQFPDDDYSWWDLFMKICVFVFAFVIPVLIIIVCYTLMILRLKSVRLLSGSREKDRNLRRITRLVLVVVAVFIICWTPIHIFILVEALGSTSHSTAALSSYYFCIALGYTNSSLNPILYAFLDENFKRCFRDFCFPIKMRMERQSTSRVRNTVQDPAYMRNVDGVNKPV
Chain of Mu-type opioid receptor (P42866 whole entry): as the sequence (P42866 whole entry) above
Chain of Delta-type opioid receptor (P32300 whole entry): as the sequence (P32300 whole entry) above
Chain of Kappa-type opioid receptor (Cavia porcellus) (P41144 whole entry): as the sequence (P41144 whole entry) above

Compound	Activity (Mus musculus [1])	IC50 [2] [nM]	Activity [3]	IC50 (Mu-type opioid receptor) [nM]	Activity [4]	Activity (Mus musculus [5])	IC50 [6] [nM]	Activity [7]	Activity [8]
COc1ccc2c3c1OC[C@H]1CC[C@]4(O)[C@H](C2)N(C)CC[C@@]34C1	Dose-dependent effect	< 500	Active	183	inactive	Dose-dependent effect	< 500	–	–
Oc1ccc2c3c1OC[C@H]1CC[C@]4(O)[C@H](C2)N(CC2CC2)CC[C@@]34C1	–	57.3	Active	1.21	–	–	0.98	Active	Active
